# Source: PubChem BioAssay AID2823 (Broad Institute, 2010)
# Activity calls are given as the source filed them. How the calls were made is not given here.
# Target: RanGTP-importin-beta complex (human Ran / KPNB1)
# Assay: Ran–importin-beta interaction inhibitors, confirmation, biochemical, FRET, CFP/YFP, cell-free homogeneous (AID 2823)
# Conditions: CFP-Ran/YFP-importin-beta FRET ratio
row,SMILES,IC50
1,O=C(Nc1cccc(-c2nc3ccccc3s2)c1)c1cccs1,> 50 µM (inactive)
2,CCN(CC)c1nc(-c2ccccc2)cc(C(F)(F)F)c1C#N,7.28 µM
3,COc1cccc(NC(=O)CSc2ncc(S(=O)(=O)c3ccccc3)c(=O)[nH]2)c1,> 50 µM (inactive)
4,O=C(c1cc2c(=O)n3ccccc3nc2s1)N1CCN(Cc2ccccc2)CC1,> 50 µM (inactive)
5,COc1ccc(C(=O)/C=C/Nc2cccc(C)n2)cc1OC,22.8 µM
6,CC(C)n1c(O)c(C2c3cc(Cl)ccc3Oc3[nH]c(=O)n(C(C)C)c(=O)c32)c(=O)[nH]c1=O (centres undefined),> 50 µM (inactive)
7,COC(=O)Cn1c(=O)c2c(nc3n2CCCN3CCc2ccccc2)n(C)c1=O,> 50 µM (inactive)
8,COCCNC(=O)c1cnn2c(C(F)F)cc(-c3ccc(C)cc3)nc12,37.8 µM
9,CCCN1CC(O)=C(C#N)C1=O,> 50 µM (inactive)
10,Cc1cccc(OCC(=O)NNc2c3ccccc3nc3ccccc23)c1,> 50 µM (inactive)
11,CCN(CC)S(=O)(=O)c1ccc(NC(=O)c2cccc3c2C(=O)N(CCOC)C3)cc1,> 50 µM (inactive)
12,CCCn1c(SCC(=O)Nc2ccc(NC(C)=O)cc2)nc2c1c(=O)n(C)c(=O)n2C,> 50 µM (inactive)
13,CCc1nnc(NC(=O)c2c(C)nn(-c3ccccc3)c2Cl)s1,> 50 µM (inactive)
14,CCOC(=O)c1c(N)n(CCOC(=O)c2cccs2)c2nc3ccccc3nc12,39.3 µM
15,COc1ccc(CCn2c(=N)c(C(=O)NCC3CCCO3)cc3c(=O)n4cccc(C)c4nc32)cc1 (centres undefined),11.5 µM
16,Cc1ccc2[nH]c(=O)c(C(c3nnnn3Cc3ccccc3)N3CCc4ccccc43)cc2c1 (centres undefined),> 50 µM (inactive)
17,Cc1cccc(-c2nnc(NC(=O)c3ccc(N4C(=O)CCC4=O)cc3)s2)c1,> 50 µM (inactive)
18,COC(=O)Cc1c(C)c2ccc(O)c(CNCc3ccc(OC)c(OC)c3)c2oc1=O,6.13 µM
19,CC(C)CCNC(=O)C(c1ccco1)N(Cc1ccc(F)cc1)C(=O)c1snc(C(N)=O)c1N (centres undefined),> 50 µM (inactive)
20,Cc1cc(C(=O)COC(=O)c2nc3nccc(C)n3n2)c(C)n1CC1CCCO1 (centres undefined),> 50 µM (inactive)
21,Cc1ccc(C(=O)Nc2ncc(Cc3ccc(F)cc3)s2)o1,> 50 µM (inactive)
22,CN1CCN(C(=O)c2ccccc2Nc2ccc(SC(F)F)cc2)CC1,> 50 µM (inactive)
23,N#CC1=C(N)SC(N)=C(C#N)C1c1cccc(O)c1,> 50 µM (inactive)
24,Nc1nonc1-n1nnc(C(=O)N/N=C/c2ccccc2)c1CSc1ccc(Cl)cc1,> 50 µM (inactive)
25,CCc1ccc(CNc2ccc3c(c2)ncn3CC)cc1,> 50 µM (inactive)

row,SMILES,IC50
1,Fc1ccc(N/N=C/C=C/c2ccccc2)c(F)c1,> 50 µM (inactive)
2,Cc1ccc(NC(=S)NCCN2CCOCC2)cc1,> 50 µM (inactive)
3,O=C(Cc1cc(=O)oc2cc(O)ccc12)N[C@@H](Cc1c[nH]c2ccccc12)C(=O)O,> 50 µM (inactive)
4,O=C(NC1CC1)c1ccc2c(Cl)c3c(nc2c1)CCCC3,> 50 µM (inactive)
5,Cc1ccc(-n2c(=O)c(C#N)cc3c(=O)n4ccccc4nc32)cc1,1.99 µM
6,CCOC(=O)c1c(NC(=O)CN2CCCc3ccccc32)sc(C(C)=O)c1C,> 50 µM (inactive)
7,Cc1ccc(CNC(=O)c2cccnc2)cc1,> 50 µM (inactive)
8,CC(C)CCNC(=O)C(c1ccco1)N(Cc1ccccc1)C(=O)c1snc(C(N)=O)c1N (centres undefined),> 50 µM (inactive)
9,COc1ccc(C(=O)N/N=C/c2c(CO)cnc(C)c2O)cc1,3.13 µM
10,Cc1cc(Nc2ccccc2)nn1C(=O)c1ccccc1,> 50 µM (inactive)
11,O=C(Oc1ccc2c3c(c(=O)oc2c1)CCCC3)c1ccco1,16 µM
12,CN=C(Nc1cc(C)nn1CCC#N)c1ccccc1,> 50 µM (inactive)
13,COc1ccc2c(C)c(C(=O)N3CC[C@@H](N4CCC(O)CC4)[C@H](O)C3)oc2c1,> 50 µM (inactive)
14,CNS(=O)(=O)c1cc(OC)c(OC)cc1CC(=O)OC,> 50 µM (inactive)
15,C=CCn1c(SCC(=O)N2CCCCC2)nnc1-c1ccncc1,> 50 µM (inactive)
16,O=C(NNc1c2ccccc2nc2ccccc12)C12CC3CC(CC(C3)C1)C2,> 50 µM (inactive)
17,N#C/C(=C/c1ccc(N2CCCCC2)o1)C(=O)NCCc1c[nH]c2ccccc12,0.936 µM
18,COc1cc2cc(C(N)=O)c(N)nc2cc1OC,10.3 µM
19,OCCNc1c2ccccc2nc2ccccc12,3.94 µM
20,C=CCN1C(=O)/C(=C2/Sc3ccccc3N2CC)SC1=S,> 50 µM (inactive)
21,COC(=O)c1sccc1NC(=O)c1csc(C)c1,> 50 µM (inactive)
22,CCOC(=O)c1c(NC(=O)Nc2ccc(F)cc2)sc2c1CCN(C)C2,> 50 µM (inactive)
23,CCN1/C(=C\C=C\C2=[N+](CC)c3ccccc3C2(C)C)C(C)(C)c2ccccc21,9.18 µM
24,O=C1C(=O)N(CCS(=O)(=O)c2ccccc2)c2ccc(Cl)cc21,> 50 µM (inactive)
25,Cc1ccc(NC(=O)Cn2nc(C(F)(F)F)c3c2CCC3)cc1,> 50 µM (inactive)

row,SMILES,IC50
1,Cc1ccc(O)c(Nc2c3ccccc3nc3ccccc23)c1,48.8 µM
2,O=C(Cn1nnc(-c2ccncc2)n1)NCCc1ccccc1,> 50 µM (inactive)
3,CC(=O)N(c1ccc(Cl)cc1)c1c[nH]c2ccccc12,> 50 µM (inactive)
4,O=C1NC(=S)S/C1=C1\Sc2ccccc2N1CCCS(=O)(=O)O,12.5 µM
5,NS(=O)(=O)c1ccc(N=Nc2c[nH]c(=O)c(O)c2)cc1,> 50 µM (inactive)
6,CCOC(=O)/C(C#N)=C/c1ccc(N2CCN(C)CC2)cc1,16 µM
7,COC(=O)c1ccc2c(C(C)(C)O)c(C(C)(C)O)[nH]c2c1,> 50 µM (inactive)
8,C=CCn1c(SCCOc2ccc(OC)cc2)nnc1C(CO)NC(=O)c1ccc(OC)cc1 (centres undefined),> 50 µM (inactive)
9,CCN(CC)S(=O)(=O)c1ccc2oc(C(=O)NCCCN3CCOCC3)c(C)c2c1,> 50 µM (inactive)
10,CN1CCCN(C(=O)Cc2c(Cl)cccc2Cl)c2nc3ccccc3nc21,36.5 µM
11,Cc1ccc(S(=O)(=O)NCCc2cn3nc(C)c(C)nc3n2)cc1C,33.3 µM
12,COc1ccc(OC(=O)C2CC(=O)N(c3ccc(C)cc3)C2)cc1 (centres undefined),> 50 µM (inactive)
13,O=C(NCC1CCN(Cc2ccccc2Cl)CC1)Nc1ccccc1F,> 50 µM (inactive)
14,O=C(c1ccc(Br)cc1)c1cc2ccc(O)cc2oc1=O,19.2 µM
15,Cc1cccc(-n2c(O)c(/C=C/C=Nc3ccccc3)c(=O)[nH]c2=O)c1,3.6 µM
16,CCOC(=O)c1sc(NC(=O)Nc2ccc(F)cc2)nc1C,> 50 µM (inactive)
17,C=CCn1c(C)c(C(C)=O)c(N2CCN(C(c3ccccc3)c3ccccc3)CC2)nc1=S,> 50 µM (inactive)
18,CN(C)S(=O)(=O)c1ccc(N2CCCC2)c(C(=O)NC(c2ccccc2)c2ccccc2)c1,> 50 µM (inactive)
19,Cc1ccc(-c2c(C(=O)N/N=C/c3ccc4c(c3)OCO4)nnn2-c2nonc2N)cc1,> 50 µM (inactive)
20,COc1ccc(C(=O)Cc2cnn(-c3ccccc3)c2)c(O)c1,> 50 µM (inactive)
21,CCN(CC)Cc1c(O)c(Cl)cc2c3c(c(=O)oc12)CCCC3,20.6 µM
22,CC1(C)CC(=O)NC=C(c2ccccc2)C1,> 50 µM (inactive)
23,Cc1ccccc1Cn1nnc(-c2cccc(C(=O)O)c2)n1,> 50 µM (inactive)
24,COCCNc1cc(C)nc2cc(-c3ccc(C)cc3)nn12,5.2 µM
